Laboratory results published in publication PMC10394516, “The pharmacokinetic profile of brensocatib and its effect on pharmacodynamic biomarkers including NE, PR3, and CatG in various rodent species” (Frontiers in Pharmacology, 2023).

How the values were obtained:
PR3 = test: Bone marrow PR3 activity after repeated dosing, BALB/c mice; format: in vivo; settings: for Reduction of PR3 activity vs vehicle / Change From Vehicle Control (%) PR3: 7 days
Protocol: Briefly, animals were weighed and randomized into different treatment groups. In total, three different dosing levels of brensocatib were tested in each species and strain; each QD dosing level was equivalent to 1.5-times the matching daily BID dose. For BID dosing, the second daily dose was administered 8-h post the morning dose. C57BL/6 mice were dosed either BID or QD for 7 consecutive days at 0/0, 0.5/0.75, 2/3, and 20/30 mg/kg/day (BID/QD). BALB/c mice were dosed for 7 consecutive days at 0/0, 0.2/0.3, 2/3, and 20/30 mg/kg/day (BID/QD). SD rats were dosed for 9 consecutive days at 0/0, 0.2/0.3, 2/3, and 20/30 mg/kg/day (BID/QD). Wistar rats were dosed for 7 consecutive days at 0/0, 0.2/0.3, 2/3, and 20/30 mg/kg/day (BID/QD).
At the completion of the study, animals were sacrificed 16–24 h post their final dose. The hind limb bones (femurs and tibias) were collected at necropsy for bone marrow analysis of NSP activities by kinetic enzymatic assays ([Basso et al., 2022]). See section Quantification of Bone Marrow NSP Activities for details.
For the mice, each animal had the femurs and tibias of both hind limbs harvested. For the rat, the femur and tibia from a single hind limb per animal was harvested. Bones were kept on wet ice until processing for bone marrow collection. In brief, bone cutters were used to cut the epiphysis (knobby ends) off the long bones to expose the bone marrow filled cavity. Each bone cavity was then flushed with 5 mL/bone (mouse) or 10 mL/bone (rat) of ice-cold RPMI media through a […] and collected in a 50-mL conical tube. Cells were spun down at 2,500 × g at 4°C for 5 min and the supernatant was aspirated. After which, bone marrow cells were lysed with 1X red blood cell (RBC) lysis buffer (Abcam, ab204733) to eliminate contaminating RBCs and washed with PBS to remove any residual RBC lysis buffer. The resulting white blood cells (WBC) were subsequently lysed with 1% (v/v) Triton X-100 in PBS. Lysates were added to 96-well plates and stored at −80°C until NSP analyses.
Bone marrow lysates prepared as described above were diluted and plated onto 96-well assay plates to quantify NSP activities as described previously ([Basso et al., 2022]). Briefly, peptide substrates for NE (N-Methoxysuccinyl-Ala-Ala-Pro-Val-7-amido-4-methylcoumarin; Sigma; St. Louis, MO; Excitation/Emission at 350/450 nm), PR3 ((7-Methoxycoumarin-4-yl)acetyl-lysyl-(picolinoyl)-Tyr-Asp-Ala-Lys-Gly-Asp-N-3-(2-4-dinitrophenyl)-2-3-diaminopropyonyl-NH2); GenScript; Piscataway, NJ; Excitation/Emission at 340/430 nm), and CatG (N-Succinyl-Ala-Ala-Pro-Phe p nitroanilide; Sigma; Absorbance at 405 nm) were added at a final assay concentration of 100 μM, 40 μM, and 200 μM, respectively, and either fluorescence or absorbance was quantified using a Synergy microplate reader (BioTek; Winooski, VT). The specific NSP activity in each sample was calculated as the total activity minus the activity in the presence of a specific NSP inhibitor (if used), including elastase inhibitor (Abcam) for NE, sivelestat (Abcam) for PR3, and cathepsin G inhibitor I (Cayman Chemical; Ann Arbor, MI) for CatG. NSP concentrations were interpolated based on their activities relative to the standard curves created using active human NE protein (Sigma), active human PR3 protein (Sigma), and active human CatG protein (Sigma), respectively. Due to unavailability of commercial mouse and/or rat NE, PR3, and CatG proteins, the corresponding human proteins were used instead since their catalytic ability is considered to be conserved across species. A portion of each cell lysate sample was retained for protein quantification using a Pierce™ BCA Protein Assay Kit (Thermo Fisher). The NSP activities were normalized for the cell lysate protein concentrations.
The Pierce™ BCA Protein Assay Kit was used to measure the total protein of the samples after lysis to allow for subsequent normalization. […]

NSPs (NE, PR3, CatG) = test: PD recovery study, bone marrow NSP activities (all three NSPs), C57BL/6 mice; format: in vivo; settings: after 8 days of 5 mg/kg BID
Protocol: A PD recovery study was performed in female C57BL/6 mice dosed BID for 8 consecutive days. Mice were dosed by oral gavage either with vehicle (0 mg/kg) or 5 mg/kg brensocatib (BID; 10 mg/kg/day). After 8 consecutive days of dosing, the animals were maintained without further treatment until prescribed sacrifice (days: 1, 3, 6, 8, and 10 days post final dose). Plasma was collected from animals during the first 24 h of dosing at −0.5 (half-hour prior to dosing), 1, 8, 9, and 24 h post initial dose. Note that the 8- and 24-h plasma samples were prior to the afternoon dose and prior to the second day dose, respectively. Plasma was used for PK analysis via LC-MS/MS. […]
Bone marrow lysates prepared as described above were diluted and plated onto 96-well assay plates to quantify NSP activities as described previously ([Basso et al., 2022]). […] The specific NSP activity in each sample was calculated as the total activity minus the activity in the presence of a specific NSP inhibitor (if used), including elastase inhibitor (Abcam) for NE, sivelestat (Abcam) for PR3, and cathepsin G inhibitor I (Cayman Chemical; Ann Arbor, MI) for CatG. […] A portion of each cell lysate sample was retained for protein quantification using a Pierce™ BCA Protein Assay Kit (Thermo Fisher). […]

Cn1c(=O)oc2ccc(-c3ccc(C[C@@H](C#N)NC(=O)[C@@H]4CNCCCO4)cc3)cc21 [brensocatib]
Reduction of PR3 activity vs vehicle (PR3; BID highest dose (20 mg/kg/day)): 70% | Reduction of PR3 activity vs vehicle (PR3; QD highest dose (30 mg/kg/day)): 52% | Combined BID and QD percentage reduction, PR3 (PR3; highest dose level 20/30 (BID/QD) mg/kg/day): 61% | Change From Vehicle Control (%) PR3 (PR3; oral BID 0.2 mg/kg/day, 16 h post final dose): +13% (p = 0.6435) | Change From Vehicle Control (%) PR3 (PR3; oral BID 2 mg/kg/day, 16 h post final dose): −26% (p = 0.1243) | Change From Vehicle Control (%) PR3 (PR3; oral BID 20 mg/kg/day, 16 h post final dose): −70% (p < 0.0001) | Change From Vehicle Control (%) PR3 (PR3; oral QD 0.3 mg/kg/day, 24 h post final dose): −7% (p = 0.9149) | Change From Vehicle Control (%) PR3 (PR3; oral QD 3 mg/kg/day, 24 h post final dose): −13% (p = 0.6769) | Change From Vehicle Control (%) PR3 (PR3; oral QD 30 mg/kg/day, 24 h post final dose): −52% (p = 0.0010) | Time to full recovery of NSP activity (visually) (NSPs (NE, PR3, CatG)): 6–8 days post final dose
